melting point | SMILES
150 to 152 °C | O=c1c2cc(Oc3ccc(Cl)cc3)ccc2cnn1Cc1cccnc1
70 to 72 °C | N#C/C=C1\CCCCC1n1nc(-c2c(-c3ccccc3)nn3ccccc23)ccc1=O (configuration not stated)
230 to 232 °C | COc1ccc(-n2c(=O)c(C)nc3ccccc32)cc1
216 °C | Cc1cc(-c2cc(C(F)(F)F)n3ncc(C#N)c3n2)ccc1Cl
305 to 306 °C | O=C(O)Cn1c(=O)c(=O)[nH]c2ccc([N+](=O)[O-])cc21
77 to 80 °C | CC1(C)CC(S(=O)(=O)Cc2cnccc2C(F)(F)F)=NO1
122 to 125 °C | CCOC(=O)C(C#N)=CNc1ncccc1CC
133 to 134 °C | CCOC(=O)c1cc2cc(SC(=O)N(C)C)ccc2oc1=O
66 to 73 °C | CCCCCCCCCCCCCCCCCNC(=O)Oc1cccc([N+](=O)[O-])c1
124 to 127 °C | O=C(/C=C1\CCc2ccc(F)cc21)NC1CC1
220 to 222 °C | CC(=O)c1ccc(C2CCN(C(C)=O)CC2)c(N)c1
205 to 206 °C | Cc1c(Cc2cccc(C(F)(F)F)c2)oc2c(-c3cc(C(=O)NCCO)ccn3)cccc12
125 to 126 °C | Cc1ccc(-c2cc(F)c(F)cc2-c2ccc(S(C)(=O)=O)cc2)cc1C
93 to 101 °C | C[C@@H](NC(=O)c1cncc(-c2ccc(Cl)cc2)c1)[C@](O)(Cn1cncn1)c1ccc(F)cc1F
52 to 55 °C | CCCCCCCCCCCCCCCCCCOc1cccc(CC(=O)N(CC(=O)OC)CC(=O)OC)c1
232 to 234 °C | COc1cc2c(c3c1OC(C)(C)C3)C(c1cccc(-c3ccc(N)cc3)c1)=NCC2(C)C
240 to 242 °C | Cc1ncc2[nH]c3ccccc3c2n1
54 to 56 °C | BrCc1cccc(-c2ccccc2)c1
> 220 °C | Cc1cn(S(=O)(=O)c2ccc(=O)[nH]n2)c2ccccc12
142 to 144 °C | Cc1cc(Cl)cc2c1NS(=O)(=O)N(C(C)C)C2=O
102 to 104 °C | OC12N=C(CSCc3ccccc3)SC1Cc1cc(Cl)ccc12 (configuration not stated)
107 to 109 °C | CCCCCCCCCCCCc1cc(CC(=O)Nc2c(OC)cc(OC)cc2OC)on1

melting point | SMILES
142 to 144 °C | COC(=O)C1=C(C)NC(C)=C(C(=O)OC(C)C)C1c1cccc([N+](=O)[O-])c1 (configuration not stated)
200 to 202 °C | CN(C)c1ccc(-c2cccc(-c3ccnc4c(C(=O)c5cccs5)cnn34)c2)cc1
88 to 92 °C | CCSc1cc(C)nc(SCC)c1NC(=O)CCCCCCCCSc1nc2ccccc2s1
158 to 160 °C | O=C(NCc1ccco1)Nc1cc(N2CC(c3ccccc3)CC2=O)ccn1 (configuration not stated)
112 to 115 °C | CCCCc1c(C(=O)C(Cl)(Cl)Cl)c2ccccc2n1C
109 to 111 °C | COc1ccc(CNCCCOc2ccc(S(=O)(=O)c3c(C(C)C)cn4ccccc34)cc2)cc1OC
147 to 158 °C | CCc1cc2c(cc1CC)C(=CC#N)OC2=O
84 to 87 °C | COc1cc(C)c(C(=O)c2c(OC)ncc(Br)c2Cl)c(OC)c1OC
188 to 191 °C | COC(=O)COc1c(-c2ccccc2)c(=O)[nH]c2cc(Cl)ccc12
148 to 150 °C | COc1ccc2c(c1)c(Cc1cc(=O)n(-c3ccccc3)[nH]1)c(C)n2C(=O)c1ccc(Cl)cc1
208 to 209 °C | NC(N)=Nc1nc(-c2ccc(CNC(=O)CS(=O)Cc3ccco3)o2)cs1 (configuration not stated)
95 °C | Cc1nn(C)c(C)c1-c1cccc(OC2SCC(O)C(O)C2O)c1 (configuration not stated)
> 300 °C | O=[N+]([O-])c1cc2nc(O)c(O)nc2c2c1CCCC2
190 to 194 °C | C=CCNc1nc(=O)c2cccnc2n1Cc1ccc(F)cc1
127 °C | O=S1(=O)c2cccc3cccc(c23)N1CCN1CCC(CC2CCc3ccccc32)CC1 (configuration not stated)
112 to 113 °C | O=C(NCc1ccccn1)c1ccc(C(F)(F)F)cc1C(F)(F)F
84 to 86 °C | CC(C)(C)OC(=O)NC1CCN(C(=O)OCCC2(C(=O)NCC(F)(F)F)c3ccccc3-c3ccccc32)CC1
204 to 206 °C | N#Cc1cnn2c1N(C(=O)CN1CCN(C(=O)Nc3ccc(Cl)c(Cl)c3)CC1)CC=C2c1cccc(C(F)(F)F)c1
139 to 141 °C | CCCCCCCCCCNC(=O)c1cc(NCCC(=O)O)c(CCC(=O)O)c(C(=O)NCCCCCCCCCC)c1
146 °C | Cc1nc(NC(=O)Nc2cccc3c2C2CCCCN2C3=O)cs1 (configuration not stated)
144 to 145 °C | CC(C)(C)c1cc(CCC(N)=O)cc(-n2nc3ccc(S(=O)(=O)c4ccccc4)cc3n2)c1O
157 to 159 °C | CCC(=O)O[C@@H]1OCC[C@@H]1NC(=O)[C@@H](NS(=O)(=O)c1cccc2ccccc12)[C@@H](C)CC

More lines, now with the values behind:

SMILES | melting point
CCCCc1nc(Cl)c(CO)n1Cc1ccc(NC(=O)C(NC(=O)OC(C)(C)C)C(=O)O)cc1 (racemic) | 144 to 147 °C
Cn1cnc(COc2nn3c(-c4ccc(F)cc4)nnc3cc2-c2ccsc2)n1 | 254 to 255 °C
CC(C)Nc1ccc(C2=NNC(=O)Cc3cc4c(cc32)OCO4)cc1 | 144 to 146 °C
Nc1ccc(Cl)cc1C(=O)C(F)(F)F | 93 to 94 °C
CCCCCCCNC(=O)Nc1ccccc1C(=O)NCCSc1nc(-c2ccccc2)c(-c2ccccc2)[nH]1 | 285 to 288 °C
CNC(=O)NS(=O)(=O)c1cc2c(cc1OC)OCC(NC(=O)c1cc(Cl)ccc1OC)C2 (configuration not stated) | 256 to 257 °C
CSc1ncnn1C[C@]1(c2ccc(F)cc2F)O[C@@H]1c1ccccc1F (relative stereo) | 65 to 68 °C
CCOC(=O)C1=C(N)NC2=C(C(=O)CCC2)C1c1cccc(C#N)c1 (configuration not stated) | 262 °C
CNC(=O)Oc1cc(C)c(NC(=O)COC)cc1C | 168 to 170 °C
CC#CCOc1ccc(SC(C(=O)NO)c2cccc(Cl)c2)cc1 (configuration not stated) | 127 °C
O=Cc1ccc2c(c1)C(=O)OC2 | 134 °C
Cc1sc(-c2ccccc2)nc1CCOc1ccc(N)cn1 | 89 to 91 °C
Cc1c(-c2cnco2)[nH]c(=O)c2c1ccc1nc(Nc3c(Cl)cccc3Cl)n(C)c12 | > 300 °C
CCc1nc2c(N)nc3cc(OCCN4CCOCC4)ccc3c2n1CC1CCOCC1 | 230 to 232 °C
CN(C)C(=O)c1nc(-c2cccc3ccccc23)no1 | 109 to 110 °C
CCOC(=O)Cc1ccc2oc(-c3ccc(Cl)cc3)nc2c1 | 81 to 82 °C
COc1ccc(S(=O)(=O)NCC(O)(Cn2cncn2)c2ccc(Cl)cc2Cl)cc1 (configuration not stated) | 56 to 66 °C
O=C(NCCCN1CCCCC1)c1ccc(-c2ccc3nnn(Cc4ccc5ncccc5c4)c3n2)cc1F | 135 to 137 °C
COc1ccc(C(=O)N2CC[C@@H](O)C2=O)cc1 | 121 to 122 °C
Nc1coc2ccc(Cl)cc2c1=O | 184 to 186 °C
Cc1cc(-n2ccnc2)c2cccc(OCc3c(Cl)ccc(-n4cccc4CNC(=O)C=Cc4ccc(C(=O)O)cc4)c3Cl)c2n1 | 166 to 170 °C
COc1ccc(-n2cnc3ccc(-c4nnc(SCc5cccc(C(F)(F)F)c5)o4)cc32)cc1 | 174 to 175 °C
CCC(C(=O)c1ccc(O)cc1)c1ccccc1 (configuration not stated) | 127 to 129 °C
COCOCc1cc(-c2ccc(C(=O)O)cc2)cc(-c2ccc3c(c2)C(C)(C)CCC3(C)C)c1 | 88 °C
Nc1sc2c(c1C(=O)c1ccsc1)CCC2 | 125 to 127 °C
CCN(CC)CCSc1nc2ccccc2c(=O)n1-c1ccccc1 | 84.8 to 86.8 °C
C1=Nc2c(cnn2-c2ccccc2)C2=N[C@@H](Cc3ccccc3)CN12 | 255 °C

SMILES | melting point
COc1ccc(CC2CCCN(c3nc(C)c(C(=O)NCc4ccccc4)s3)C2=O)cc1 (configuration not stated) | 116 to 118 °C
COc1c2c(cc3ccc(=O)oc13)CC(C)O2 (configuration not stated) | 115 to 116 °C
CCn1cc(C(=O)O)c(=O)c2c(F)c(F)c(N3CCNC(c4ccsc4)C3)c(F)c21 (configuration not stated) | 221 to 222 °C
O=C(NCCCCCCNC(=O)NS(=O)(=O)c1ccc(Br)o1)NS(=O)(=O)c1ccc(Br)o1 | 98 to 99 °C
C=CCn1ncc2cc3ncc(-c4ccc(OC)c(F)c4)nc3cc21 | 121 to 124 °C
O=C1NC(C(Cl)(Cl)Cl)Nc2ccc(I)cc21 (configuration not stated) | 224 to 225 °C
COC(=O)Nc1ccc(N)c(NCCO)c1 | 240 to 242 °C
O=C(NCCN1CCOCC1)Oc1cccc(C2CCCN2Cc2ccccc2)c1 (configuration not stated) | 74 to 77 °C
CCCCc1oc2ccccc2c1C(O)c1ccc(O)cc1 (configuration not stated) | 94 to 96 °C
NC(=O)c1cn(Cc2cccc(F)c2F)cn1 | 221 to 222 °C
COC(=O)c1ccc(Cl)c(CN2CCSC2=NC#N)c1Cl | 158 °C
COc1cc(-c2c(Cl)c(CN3CCCC3=O)nc3sc4c(c23)CCN(Cc2ccccc2)C4)ccc1OC(C)C | 140 to 141 °C
CC(=O)C(=O)Nc1ccc(-c2ccc(C(=O)O)c(=O)[nH]2)cc1 | > 280 °C
O=C(O)CN1C(=O)C(=CC=Cc2ccccc2-c2ccccc2)SC1=S | 246 to 249 °C
CCOC(=O)c1c[nH]cc1-c1ccccc1[N+](=O)[O-] | 159 to 161 °C
Cc1nc[nH]c1CSCCNC(=N)N[N+](=O)[O-] | 146 to 147 °C
CC1(C)C(C=CC(=O)Oc2ccccc2)C1C(=O)O (configuration not stated) | 57 °C
CCOP(=O)(Cc1ccc(NC(=O)c2cc(=O)c3ccccc3o2)cc1)OCC | 153 to 154 °C
COc1ccc(-n2c(-c3sc(Nc4ccc(Cl)cc4)nc3-c3ccccc3)nc3ccccc3c2=O)cc1 | 220 to 221 °C
O=C(O)c1cc(C(F)(F)F)cc(S(=O)(=O)Cc2ccccc2)c1 | 184 to 186 °C
CCOc1nc(NCc2ccco2)nc(Nc2ccc3[nH]c(C(F)(F)F)nc3c2)n1 | 188 to 190 °C
CC(C)(C)C(=O)Nc1cccc(-c2ccc(C3CCNC3=O)cc2F)n1 (configuration not stated) | 162 to 165 °C
O=C(O)CCCCNCc1cc2cc3c(cc2c2cc(OCc4ccccc4)ccc12)OCO3 | 197 to 199 °C
Cc1n[nH]cc1-c1cnc2[nH]c(=O)n(CC3CCOCC3)c2n1 | 222 to 224 °C
Cc1nc(NC(=O)c2cc(Cl)ccc2F)sc1C(=O)NCc1ccccc1 | 175 to 178 °C
C=CCC(C#N)(C#N)Cc1c(F)c(F)c(F)c(F)c1F | 78.2 °C

Source: a melting point compilation (Tetko et al.; mined from patent text by program, amines drawn as free bases though some values may be those of a salt)
